Results published in US20130079345A1, “[…] ACTIVE DISUBSTITUTED TRIAZINE DERIVATIVES” (BAYER INTELLECTUAL PROPERTY GMBH, priority 2010, published 2013).
Where a name gives a salt, the structure may show the parent alone.

Columns and labels:
CDK9/CycT1 = biological target: T1, CDK9/CycT1 (Homo sapiens, UniProt P50750); experiment: CDK9/CycT1 kinase assay (TR-FRET); type: biochemical; details: ATP 10 μM
T1 construct: Recombinant full-length His-tagged human CDK9 and CycT1; His; purchased Invitrogen PV4131; host or cells: insect cells
Source text: CDK9/CycT1-inhibitory activity of compounds of the present invention was quantified employing the CDK9/CycT1 TR-FRET assay as described in the following paragraphs.
Recombinant full-length His-tagged human CDK9 and CycT1, expressed in insect cells and purified by Ni-NTA affinity chromatography, were purchased from Invitrogen (catalogue number PV4131). A biotinylated peptide biotin-Ttds-[…] (C-terminus in amide form), which can be purchased from e.g the company JERINI Peptide Technologies (Berlin, Germany), was used as a substrate for the kinase reaction.
(§1) For the assay, 50 nl of a 100-fold concentrated solution of the test compound in DMSO was pipetted into a well of a black low-volume 384-well microtiter plate (Greiner Bio-One, Frickenhausen, Germany), 2 μl of a solution of CDK9/CycT1 in aqueous assay buffer [50 mM Tris/HCl pH 8.0], 10 mM MgCl2, 1.0 mM dithiothreitol, 0.1 mM sodium ortho-vanadate, 0.01% (v/v) Nonidet-P40 (Sigma)] were added. The mixture was incubated at 22° C. for 15 min to allow pre-binding of the test compounds to the enzyme before the start of the kinase reaction. […] The resulting mixture was incubated at 22° C. for a reaction time of 25 minutes. The concentration of CDK9/CycT1 was adjusted depending of the activity of the enzyme lot and was chosen appropriately for measurements in the linear range of the assay. Typical concentrations were in the range of 1 μg/ml. The reaction was stopped by the addition of 5 μl of a solution of TR-FRET detection reagents (0.2 μM streptavidine-XL and 1 nM anti-RB(pSer807/pSer811)-antibody from BD Pharmingen [#558389] and 1.2 nM LANCE EU-W1024 labeled anti-mouse IgG antibody [Perkin-Elmer, product no. AD0077]) in an aqueous EDTA-solution (100 mM EDTA, 0.2% (w/v) bovine serum albumin in 100 mM HEPES/NaOH, pH 7.0).
(§2) The resulting mixture was incubated at 22° C. for one hour to allow the formation of a complex between the phosphorylated biotinylated peptide and the detection reagents. Subsequently, the amount of phosphorylated substrate was evaluated by measurement of the resonance energy transfer from the Eu-chelate to the streptavidine-XL. Therefore, the fluorescence emissions at 620 nm and 665 nm after excitation at 350 nm were measured in a HTRF reader, e.g. a Rubystar (BMG Labtechnologies, Offenburg, Germany) or a Viewlux (Perkin-Elmer). The ratio of the emissions at 665 nm and at […] was taken as a measure for the amounts of phosphorylated substrate. The data were normalised, i.e. enzyme reaction without inhibitor corresponds to 0% inhibition, and all other assay components in the absence of the enzyme correspond to 100% inhibition. IC50 values were calculated by a 4-parameter fit using in-house software.

CDK2/CycE = biological target: T2, CDK2/CycE (Homo sapiens, UniProt P24941); experiment: CDK2/CycE kinase assay (TR-FRET); type: biochemical; details: ATP 10 μM
T2 construct: GST; purchased ProQinase GmbH (Freiburg, Germany); host or cells: insect cells (Sf-9)
Source text: CDK2/CycE-inhibitory activity of compounds of the present invention was quantified employing the CDK2/CycE TR-FRET assay as described in the following paragraphs.
Recombinant fusion proteins of glutathione S-transferase (GST) and human CDK2 and of GST and human CycE, expressed in insect cells (Sf-9) and purified by glutathion-sepharose affinity chromatography, were purchased from ProQinase GmbH (Freiburg, Germany). A biotinylated peptide biotin-Ttds-[…] (C-terminus in amide form), which can be purchased from e.g the company JERINI Peptide Technologies (Berlin, Germany), was used as a substrate for the kinase reaction.
as §1, with “of CDK2/CycE” for “of CDK9/CycT1”, “for” for “for a reaction time of”, “depending on” for “depending of”, “of 130 ng/ml.” for “of 1 μg/ml.”
as §2, with “measuring” for “measurement of”, “high time-resolved fluorometry (HTRF)” for “HTRF”

T1 sequence (P50750 whole entry): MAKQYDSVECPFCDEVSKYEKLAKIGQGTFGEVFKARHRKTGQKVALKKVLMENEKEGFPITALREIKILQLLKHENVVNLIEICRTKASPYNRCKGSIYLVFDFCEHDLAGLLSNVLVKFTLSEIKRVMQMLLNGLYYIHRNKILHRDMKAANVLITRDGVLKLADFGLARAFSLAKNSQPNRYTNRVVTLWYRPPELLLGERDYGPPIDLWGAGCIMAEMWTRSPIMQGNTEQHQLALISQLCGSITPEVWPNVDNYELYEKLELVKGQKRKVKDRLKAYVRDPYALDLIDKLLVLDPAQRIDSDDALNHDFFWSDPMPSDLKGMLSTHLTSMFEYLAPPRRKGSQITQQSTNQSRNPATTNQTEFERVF
T1 sequence (O60563 whole entry partner): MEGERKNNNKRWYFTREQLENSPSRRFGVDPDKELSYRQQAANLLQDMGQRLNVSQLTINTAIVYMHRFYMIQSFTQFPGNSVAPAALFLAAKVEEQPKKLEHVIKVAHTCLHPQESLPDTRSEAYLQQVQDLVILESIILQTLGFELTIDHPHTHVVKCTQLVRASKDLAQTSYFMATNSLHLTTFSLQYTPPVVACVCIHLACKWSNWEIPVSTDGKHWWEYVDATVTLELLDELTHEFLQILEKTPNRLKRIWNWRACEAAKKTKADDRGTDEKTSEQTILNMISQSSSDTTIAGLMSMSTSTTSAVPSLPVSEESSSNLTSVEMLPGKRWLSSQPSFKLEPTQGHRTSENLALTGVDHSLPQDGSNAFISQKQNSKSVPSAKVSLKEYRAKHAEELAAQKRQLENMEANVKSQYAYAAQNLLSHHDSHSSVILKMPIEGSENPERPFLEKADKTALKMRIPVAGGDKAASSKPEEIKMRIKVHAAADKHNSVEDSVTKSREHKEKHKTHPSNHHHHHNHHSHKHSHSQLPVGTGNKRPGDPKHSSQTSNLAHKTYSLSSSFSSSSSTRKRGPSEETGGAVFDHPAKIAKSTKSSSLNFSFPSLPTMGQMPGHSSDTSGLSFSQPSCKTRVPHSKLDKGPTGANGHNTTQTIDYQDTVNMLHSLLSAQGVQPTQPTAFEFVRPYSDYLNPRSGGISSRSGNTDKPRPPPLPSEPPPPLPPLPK

SMILES | IC50 (CDK9/CycT1; values in nM) [nM] | IC50 (CDK2/CycE; values in nM) [nM] | IC50 (CDK2/CycE; values given in μM) [nM] | IC50 (CDK9/CycT1; values given in μM) [nM]
CC(C)Oc1cc(F)ccc1-c1ncnc(Nc2cccc(CS(N)(=O)=O)c2)n1 [Compound U2, 1-[3-({4-[4-fluoro-2-(propan-2-yloxy)phenyl]-1,3,5-triazin-2-yl}amino)phenyl]methanesulfonamide] | 28 | 880 |  | 
COc1cc(F)ccc1-c1ncnc(Nc2cccc(CS(N)(=O)=O)c2)n1 [Compound B2, 3-[(4-(4-Fluoro-2-methoxyphenyl)-1,3,5-triazin-2-yl)amino]benzenemethanesulfonamide] | 8.1 | 930 |  | 
NS(=O)(=O)Cc1cccc(Nc2ncnc(-c3ccccc3Oc3ccccc3)n2)c1 [Compound B14, 1-(3-{[4-(2-phenoxyphenyl)-1,3,5-triazin-2-yl]amino}phenyl)methanesulfonamide] | 62 |  | 4000 | 
NS(=O)(=O)Cc1cccc(Nc2ncnc(-c3ccccc3OCc3ccccc3)n2)c1 [Compound B13, 3-[(4-(2-Benzyloxyphenyl)-1,3,5-triazin-2-yl)amino]benzenemethanesulfonamide] | 3.2 | 380 |  | 
COc1cc(F)ccc1-c1ncnc(Nc2ccc(S(C)(=O)=O)nc2)n1 [Compound U8, 4-(4-fluoro-2-methoxyphenyl)-N-[6-(methylsulfonyl)pyridin-3-yl]-1,3,5-triazin-2-amine] | 320 | 170 |  | 
CNS(=O)(=O)Cc1cccc(Nc2cc(-c3ccccc3OC)ncn2)c1 [Ref2, C-{3-[6-(2-Methoxy-phenyl)-pyrimidin-4-ylamino]-phenyl}-N-methyl methanesulfonamide, reference compound] | 40 |  | 1600 | 
N#Cc1cc(F)ccc1-c1ncnc(Nc2cccc(CS(N)(=O)=O)c2)n1 [Compound U3, 1-(3-{[4-(2-cyano-4-fluorophenyl)-1,3,5-triazin-2-yl]amino}phenyl)methanesulfonamide] |  |  | 14000 | 3300
COc1cc(F)c(F)cc1-c1ncnc(Nc2cccc(CS(N)(=O)=O)c2)n1 [Compound U7, 1-(3-{[4-(4,5-difluoro-2-methoxyphenyl)-1,3,5-triazin-2-yl]amino}phenyl)methanesulfonamide] | 14 | 930 |  | 
COc1ccccc1-c1ncnc(Nc2cccc(CS(N)(=O)=O)c2)n1 [Compound B1, 3-[(4-(2-Methoxyphenyl)-1,3,5-triazin-2-yl)amino]benzenemethanesulfonamide] | 21 |  | 1800 | 
COc1cc(F)ccc1-c1ncnc(Nc2cccc(CS(N)(=O)=O)c2)n1 [B2′, 1-(3-{[4-(4-fluoro-2-methoxyphenyl)-1,3,5-triazin-2-yl]amino}phenyl)methanesulfonamide hydrochloride] | 14 | 670 |  | 
COc1ccccc1-c1cc(Nc2cccc(CS(=O)(=O)N(C)C)c2)ncn1 [Ref4, C-{3-[6-(2-Methoxy-phenyl)-pyrimidin-4-ylamino]-phenyl}-N,N-dimethylmethanesulfonamide, reference compound] | 49 |  | 2700 | 
